Target: Neuraminidase (Influenza A virus (A/Puerto Rico/8/1934(H1N1)), UniProt P03468)
Test: Inhibition of influenza A virus A/PR/8/34(H1N1) neuraminidase assessed as fluorescent product using MUNANA as substrate after 60 mins by fluorescence analysis

Neuraminidase (Influenza A virus (A/Puerto Rico/8/1934(H1N1)), UniProt P03468), sequence (P03468 whole entry): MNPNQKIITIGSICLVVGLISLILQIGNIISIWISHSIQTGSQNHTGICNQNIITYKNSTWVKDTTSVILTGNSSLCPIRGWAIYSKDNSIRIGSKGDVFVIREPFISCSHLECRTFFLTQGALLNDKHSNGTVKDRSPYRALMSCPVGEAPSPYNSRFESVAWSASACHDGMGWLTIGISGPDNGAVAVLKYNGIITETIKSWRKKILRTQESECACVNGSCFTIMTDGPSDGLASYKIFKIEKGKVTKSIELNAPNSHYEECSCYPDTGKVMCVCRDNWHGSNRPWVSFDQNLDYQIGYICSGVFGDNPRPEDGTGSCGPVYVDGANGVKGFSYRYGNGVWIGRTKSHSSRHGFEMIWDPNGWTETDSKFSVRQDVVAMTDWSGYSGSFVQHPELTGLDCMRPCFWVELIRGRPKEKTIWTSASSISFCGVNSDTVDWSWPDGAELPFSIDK

Q: With `O=c1cc(-c2ccc(O)cc2)oc2c(CN3[C@H](O)COC[C@@H]3O)c(O)cc(O)c12` as the compound, how does the IC50 read?
A: 64 µM

Q: With `O=c1cc(-c2ccc(O)c(O)c2)oc2c(CN3CCCCC3)c(O)cc(O)c12` as the compound, how does the IC50 read?
A: 62.9 µM

Q: How did the IC50 turn out when `C[C@@H]1COC[C@H](C)N1Cc1c(O)c(O)c(O)c2c(=O)cc(-c3ccccc3)oc12` was run?
A: 591 µM

Q: `O=c1cc(-c2ccc(O)cc2)oc2c(CN3CCN(Cc4ccccc4)CC3)c(O)cc(O)c12` was tested. Which IC50 did it give?
A: 48.5 µM

Q: Which IC50 does the source give for `O=c1cc(-c2ccccc2)oc2c(CN3CCCCC3)c(O)c(O)c(O)c12` here?
A: 104 µM

Q: For `O=c1cc(-c2ccc(O)cc2)oc2c(CN3CCCC3)c(O)cc(O)c12`, which IC50 is on record?
A: 44.5 µM

Q: Which IC50 does the source give for `CC1CCCN(Cc2c(O)cc(O)c3c(=O)cc(-c4ccc(O)cc4)oc23)C1` (stereo not given) here?
A: 52.5 µM

Q: Which IC50 does the source give for `O=c1cc(-c2ccc(O)cc2)oc2c(CN3CCC(O)CC3)c(O)cc(O)c12` here?
A: 168 µM

Q: With `O=c1cc(-c2ccc(O)c(O)c2)oc2c(CN3CCOCC3)c(O)cc(O)c12` as the compound, how does the IC50 read?
A: 81.9 µM

Q: For `O=c1cc(-c2ccccc2)oc2c(CN3CCC(O)CC3)c(O)cc(O)c12`, which IC50 is on record?
A: 295 µM

Q: How did the IC50 turn out when `O=c1cc(-c2ccc(O)cc2)oc2c(CN3CCOCC3)c(O)cc(O)c12` was run?
A: 50.5 µM

Q: For `O=c1cc(-c2ccc(O)cc2)oc2c(CN3CCC(CO)CC3)c(O)cc(O)c12`, which IC50 is on record?
A: 40.9 µM

Q: With `O=c1cc(-c2ccc(O)cc2)oc2c(CN3CCC(Cc4ccccc4)CC3)c(O)cc(O)c12` as the compound, how does the IC50 read?
A: 46.1 µM

Q: Which IC50 does the source give for `CC1CCN(Cc2c(O)cc(O)c3c(=O)cc(-c4ccc(O)cc4)oc23)CC1` here?
A: 164 µM

Q: For `O=c1cc(-c2ccccc2)oc2c(CN3CCC(CO)CC3)c(O)c(O)c(O)c12`, which IC50 is on record?
A: 470 µM

Q: With `C[C@@H]1COC[C@H](C)N1Cc1c(O)cc(O)c2c(=O)cc(-c3ccc(O)c(O)c3)oc12` as the compound, how does the IC50 read?
A: 43.5 µM

Q: Which IC50 does the source give for `O=c1cc(-c2ccccc2)oc2c(CN3CCOCC3)c(O)cc(O)c12` here?
A: 448 µM

Q: `O=c1cc(-c2ccccc2)oc2c(CN3CCCC3)c(O)cc(O)c12` was tested. Which IC50 did it give?
A: 182 µM

Q: Which IC50 does the source give for `O=c1cc(-c2ccccc2)oc2c(CN3CCCC3)c(O)c(O)c(O)c12` here?
A: 107 µM

Q: How did the IC50 turn out when `O=c1cc(-c2ccc(O)c(O)c2)oc2c(CN3CCCC(O)C3)c(O)cc(O)c12` (stereo not given) was run?
A: 63.6 µM

Q: How did the IC50 turn out when `O=c1cc(-c2ccccc2)oc2c(CN3CCN(CCO)CC3)c(O)cc(O)c12` was run?
A: 135 µM

Q: `CN1CCN(Cc2c(O)cc(O)c3c(=O)cc(-c4ccc(O)cc4)oc23)CC1` was tested. Which IC50 did it give?
A: 148 µM

Q: Which IC50 does the source give for `O=c1cc(-c2ccccc2)oc2c(CN3CCN(CCO)CC3)c(O)c(O)c(O)c12` here?
A: 276 µM

Q: For `O=c1cc(-c2ccccc2)oc2c(CN3CCCC(O)C3)c(O)c(O)c(O)c12` (stereo not given), which IC50 is on record?
A: 68.2 µM

Q: For `O=c1cc(-c2ccc(O)cc2)oc2c(CN3CCC[C@H]3CO)c(O)cc(O)c12`, which IC50 is on record?
A: 49.7 µM

Q: `CN1CCN(Cc2c(O)cc(O)c3c(=O)cc(-c4ccccc4)oc23)CC1` was tested. Which IC50 did it give?
A: 431 µM

Q: Which IC50 does the source give for `O=c1cc(-c2ccccc2)oc2c(CN3CCC(CO)CC3)c(O)cc(O)c12` here?
A: 83.7 µM

Q: Which IC50 does the source give for `CN1CCN(Cc2c(O)c(O)c(O)c3c(=O)cc(-c4ccccc4)oc23)CC1` here?
A: 302 µM

Q: `O=c1cc(-c2ccc(O)c(O)c2)oc2c(CN3CCC(CO)CC3)c(O)cc(O)c12` was tested. Which IC50 did it give?
A: 64.2 µM

Q: Which IC50 does the source give for `CC1CCCCN1Cc1c(O)cc(O)c2c(=O)cc(-c3ccc(O)c(O)c3)oc12` (stereo not given) here?
A: 161 µM

Q: For `CC1CCCCN1Cc1c(O)c(O)c(O)c2c(=O)cc(-c3ccccc3)oc12` (stereo not given), which IC50 is on record?
A: 99.7 µM

Q: With `O=c1cc(-c2ccccc2)oc2c(CN3CCC(O)CC3)c(O)c(O)c(O)c12` as the compound, how does the IC50 read?
A: 91.5 µM

Q: How did the IC50 turn out when `CN1CCN(Cc2c(O)cc(O)c3c(=O)cc(-c4ccc(O)c(O)c4)oc23)CC1` was run?
A: 53.8 µM

Q: With `O=c1cc(-c2ccc(O)cc2)oc2c(CN3CCCC(O)C3)c(O)cc(O)c12` (stereo not given) as the compound, how does the IC50 read?
A: 45.3 µM

Q: Which IC50 does the source give for `O=c1cc(-c2ccccc2)oc2c(CN3CCCC(O)C3)c(O)cc(O)c12` (stereo not given) here?
A: 259 µM
